From ChEMBL document CHEMBL6134895, “Strategic Design and Optimization of Umifenovir Analogues: Balancing Antiviral Efficacy and hERG Toxicity against SARS-CoV-2” (J Med Chem, 2025) come the findings set out here.

Calls of active or inactive are those of the source. No cut-off for these calls is given here.

Chain of Voltage-gated inwardly rectifying potassium channel KCNH2 (Q12809 whole entry): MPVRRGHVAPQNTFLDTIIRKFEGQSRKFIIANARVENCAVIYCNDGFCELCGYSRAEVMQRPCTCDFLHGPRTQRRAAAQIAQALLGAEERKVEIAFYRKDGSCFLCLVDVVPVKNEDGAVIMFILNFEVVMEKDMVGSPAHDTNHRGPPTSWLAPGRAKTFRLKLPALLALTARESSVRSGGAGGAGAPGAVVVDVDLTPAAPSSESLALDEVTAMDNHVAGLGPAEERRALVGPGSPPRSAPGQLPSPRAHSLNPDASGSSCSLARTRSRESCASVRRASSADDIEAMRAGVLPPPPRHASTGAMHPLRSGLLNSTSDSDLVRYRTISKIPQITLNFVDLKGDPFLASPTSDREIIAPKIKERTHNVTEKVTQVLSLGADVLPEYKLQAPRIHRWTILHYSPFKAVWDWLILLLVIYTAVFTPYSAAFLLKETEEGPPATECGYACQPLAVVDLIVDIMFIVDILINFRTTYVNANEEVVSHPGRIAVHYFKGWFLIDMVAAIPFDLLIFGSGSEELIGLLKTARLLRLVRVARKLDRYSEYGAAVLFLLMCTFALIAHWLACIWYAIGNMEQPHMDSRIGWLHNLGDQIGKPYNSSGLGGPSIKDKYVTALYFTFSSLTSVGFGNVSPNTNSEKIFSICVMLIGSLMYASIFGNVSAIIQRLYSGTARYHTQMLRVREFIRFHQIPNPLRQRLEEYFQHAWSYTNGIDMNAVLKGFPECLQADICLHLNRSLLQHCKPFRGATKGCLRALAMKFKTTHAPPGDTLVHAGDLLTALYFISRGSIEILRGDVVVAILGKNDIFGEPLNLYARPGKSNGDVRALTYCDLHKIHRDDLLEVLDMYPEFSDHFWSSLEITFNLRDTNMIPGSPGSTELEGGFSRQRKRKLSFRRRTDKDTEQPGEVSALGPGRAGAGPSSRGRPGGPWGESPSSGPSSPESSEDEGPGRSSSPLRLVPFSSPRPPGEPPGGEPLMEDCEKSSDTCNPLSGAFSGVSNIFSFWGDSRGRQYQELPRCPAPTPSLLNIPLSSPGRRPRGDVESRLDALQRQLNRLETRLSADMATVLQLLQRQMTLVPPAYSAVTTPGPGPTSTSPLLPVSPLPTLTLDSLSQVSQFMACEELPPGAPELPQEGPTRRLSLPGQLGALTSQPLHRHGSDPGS

System in one data set: not listed separately
Nature of the data set: Stability in mouse plasma assessed as compound remaining at 2 uM measured after 60 mins by LC-MS/MS analysis. It counts as ADME, cell-free. The note with it: read-out: Stability.
Take `CC(C)[N+](C)(CCOC(=O)C1c2ccccc2Oc2ccccc21)C(C)C` [PROPANTHELINE]: the remaining at 1 h, 2 µM amounted to 17.4%.

A further data set deals with SARS-CoV-2. Nature of the data set: Antiviral activity against SARS CoV-2 Wuhan infected in African green monkey Vero E6 cells assessed as inhibition of viral replication pretreated for 15 mins followed by compound removal and induction of viral infection for 1 hr and subsequent removal of inoculum and further addition of media containing compound measured after 48 hrs by RT-qPCR analysis. It counts as functional, organism-based. The note with it: Severe acute respiratory syndrome coronavirus 2, time 48.25 hrs.
Take `CCOC(=O)c1c(CSc2ccc(F)cc2C)n(Cc2ccc(F)cc2)c2cc(Br)c(O)cc12`: the inhibition result is “Not active; No Significant Effect”.

The subject of the next data set is SARS-CoV-2. Nature of the data set: Potency index, ratio of Arbidol IC50 to test compound IC50 for antiviral activity against SARS CoV-2 Wuhan infected in African green monkey Vero E6 cells assessed as inhibition of viral replication pretreated for 15 mins followed by compound removal and induction of viral infection for 1 hr and subsequent removal of inoculum and further addition of media containing compound measured after 24 hrs …. The note with it: time 24.25 hrs. It counts as functional, Severe acute respiratory syndrome coronavirus 2.
Take `Cc1ccc(Cn2c(CSc3c(C)cc(C)cc3C)c(C(=O)NC3CCN(Cc4ccccc4)CC3)c3cc(O)c(Br)cc32)cc1`: the “Ratio IC50” value is listed as ~13.

System in the next data set: not listed separately
Nature of the data set: Stability in mouse plasma assessed as half life at 2 uM measured up to 120 mins by LC-MS/MS analysis. It counts as ADME, cell-free.
Conditions: not given
On to `CC(C)[N+](C)(CCOC(=O)C1c2ccccc2Oc2ccccc21)C(C)C` [PROPANTHELINE], for which the half-life at 2 µM turned out to be 52.1 min.

System in another data set: not listed separately
Briefly: Stability in human plasma assessed as half life at 2 uM measured up to 120 mins by LC-MS/MS analysis.
Conditions: not given
It counts as ADME, cell-free.
On to `CC(C)[N+](C)(CCOC(=O)C1c2ccccc2Oc2ccccc21)C(C)C` [PROPANTHELINE], for which the half-life at 2 µM turned out to be 21.3 min.

The test system of a further data set is SARS-CoV-2. Briefly: Antiviral activity against SARS CoV-2 Wuhan infected in African green monkey Vero E6 cells assessed as virus inactivation at 5 uM pretreated for 15 mins followed by compound removal and induction of viral infection for 1 hr and subsequent removal of inoculum and further addition of media containing compound measured after 48 hrs by RT-qPCR analysis relative to control. It counts as functional, Severe acute respiratory syndrome coronavirus 2. The note with it: time 48.25 hrs.
Turning to `CCOC(=O)c1c(CSc2ccc(F)cc2)n(Cc2cccc3ccccc23)c2cc(Br)c(O)cc12`, the Activity is >90%.

Regarding `CCOC(=O)c1c(CSc2ccc(F)cc2C)n(C)c2cc(Br)c(O)cc12`, the Activity worked out at 75%.

In the case of `CCOC(=O)c1c(CSc2ccc(F)cc2C)n(Cc2ccc(C)cc2)c2cc(Br)c(O)cc12`, the Activity is given as >50%.

As to `CCOC(=O)c1c(CSc2ccc(C)cc2C)n(C)c2cc(Br)c(O)c(CN(C)C)c12`, the Activity is listed as >99%.

In the case of `CCOC(=O)c1c(CSc2ccc(F)cc2C)n(Cc2ccc(F)cc2)c2cc(Br)c(O)cc12`, the Activity is >95%.

A further data set has as its target Voltage-gated inwardly rectifying potassium channel KCNH2 (Homo sapiens, UniProt Q12809). Briefly: Inhibition of hERG extracted from membrane (unknown origin) incubated for 4 hrs by fluorescence polarization assay. It counts as toxicity, cell membranes.
Conditions: not given
As to `CCOC(=O)c1c(CSc2ccc(C)cc2C)n(C)c2cc(Br)c(O)c(CN(C)C)c12`, the IC50 was determined as 650 nM.

System in the next data set: not listed separately
Briefly: Stability in human plasma assessed as compound remaining at 2 uM measured after 60 mins by LC-MS/MS analysis. It counts as ADME, cell-free. The note with it: read-out: Stability.
As for `CC(C)[N+](C)(CCOC(=O)C1c2ccccc2Oc2ccccc21)C(C)C` [PROPANTHELINE], the remaining at 1 h, 2 µM is 2.04%.

The subject of the next data set is SARS-CoV-2. Briefly: Antiviral activity against SARS CoV-2 Wuhan infected in African green monkey Vero E6 cells assessed as inhibition of viral replication pretreated for 15 mins followed by compound removal and induction of viral infection for 1 hr and subsequent removal of inoculum and further addition of media containing compound measured after 24 hrs by cell-based ELISA. As to conditions: Severe acute respiratory syndrome coronavirus 2, Wuhan, Vero C1008. It counts as functional, organism-based.
Take `Cc1ccc(Cn2c(CSc3c(C)cc(C)cc3C)c(C(=O)NC3CCN(Cc4ccccc4)CC3)c3cc(O)c(Br)cc32)cc1`: the IC50 was determined as 1500 nM.

As to `CCOC(=O)c1c(CSc2ccc(F)cc2C)n(Cc2ccc(C)cc2)c2cc(Br)c(O)cc12`, the IC50 worked out at 10000 nM.

Consider `CCOC(=O)c1c(CSc2ccc(C)cc2C)n(C)c2cc(Br)c(O)c(CN(C)C)c12`, for which the IC50 was 1500 nM.

Consider `CCOC(=O)c1c(CSc2ccc(F)cc2C)n(Cc2ccc(F)cc2)c2cc(Br)c(O)cc12`, for which the IC50 amounted to 12700 nM.

Staying with this data set, now noted: Severe acute respiratory syndrome coronavirus 2, time 24.25 hrs.
As for `CCOC(=O)c1c(CSc2ccc(F)cc2)n(Cc2cccc3ccccc23)c2cc(Br)c(O)cc12`, the inhibition result is “inactive”.

As to `CCOC(=O)c1c(CSc2ccc(F)cc2C)n(C)c2cc(Br)c(O)cc12`, the inhibition entry is “inactive”.

System in the next data set: not listed separately
Briefly: (§1) Cytotoxicity against African green monkey Vero E6 cells assessed as cell viability at 5 uM incubated for 48 hrs by MTT assay. It counts as toxicity, cell-based, Vero C1008. As to conditions: chlorocebus sabaeus, Vero E6 cells, read-out: Activity.
Turning to `CCOC(=O)c1c(CSc2ccc(F)cc2C)n(C)c2cc(Br)c(O)cc12`, the viability at 48 h, 5 µM amounted to 70%.

A further data set relates to Vero C1008. The description is as §1. It counts as toxicity, cell-based. As to conditions: chlorocebus sabaeus, vero c1008, 48 h, 5 µM.
As to `Cc1ccc(Cn2c(CSc3c(C)cc(C)cc3C)c(C(=O)NC3CCN(Cc4ccccc4)CC3)c3cc(O)c(Br)cc32)cc1`, the Activity entry is “Non-toxic”.

In the case of `CCOC(=O)c1c(CSc2ccc(F)cc2)n(Cc2cccc3ccccc23)c2cc(Br)c(O)cc12`, the Activity entry is reported as “Non-toxic”.

Take `CCOC(=O)c1c(CSc2ccc(F)cc2C)n(Cc2ccc(C)cc2)c2cc(Br)c(O)cc12`: the Activity entry is recorded as “Non-toxic”.

Turning to `CCOC(=O)c1c(CSc2ccc(C)cc2C)n(C)c2cc(Br)c(O)c(CN(C)C)c12`, the Activity result is “Non-toxic”.

Consider `CCOC(=O)c1c(CSc2ccc(F)cc2C)n(Cc2ccc(F)cc2)c2cc(Br)c(O)cc12`, for which the Activity result is given as “Non-toxic”.

In another data set the test system is SARS-CoV-2. Briefly: Antiviral activity against SARS CoV-2 Wuhan infected in African green monkey Vero E6 cells assessed as virus inactivation at 1 uM pretreated for 15 mins followed by compound removal and induction of viral infection for 1 hr and subsequent removal of inoculum and further addition of media containing compound measured after 48 hrs by RT-qPCR analysis relative to control. It counts as functional. The note with it: Severe acute respiratory syndrome coronavirus 2, time 48.25 hrs.
Take `CCOC(=O)c1c(CSc2ccc(F)cc2)n(Cc2cccc3ccccc23)c2cc(Br)c(O)cc12`: the Activity entry is “Not active; No Significant Effect Observed”.

In the case of `CCOC(=O)c1c(CSc2ccc(F)cc2C)n(C)c2cc(Br)c(O)cc12`, the Activity entry is “Not active; No Significant Effect Observed”.

`CCOC(=O)c1c(CSc2ccc(F)cc2C)n(Cc2ccc(C)cc2)c2cc(Br)c(O)cc12`: the Activity result is “Not active; No Significant Effect Observed”.

Regarding `CCOC(=O)c1c(CSc2ccc(F)cc2C)n(Cc2ccc(F)cc2)c2cc(Br)c(O)cc12`, the Activity result is “Not active; No Significant Effect Observed”.

Still in this data set, the particulars now being: time 48.25 hrs.
Consider `CCOC(=O)c1c(CSc2ccc(C)cc2C)n(C)c2cc(Br)c(O)c(CN(C)C)c12`, for which the Activity was >99%.
